Results: US9133187B2, “Serine/threonine kinase inhibitors” (ARRAY BIOPHARMA INC., priority 2011, dated 2015)

Tests used:
[1] = biological target: human ERK-2 (Mitogen Activated Kinase 1) (Homo sapiens (Human), UniProt P28482); assay: ERK-2 Enzymatic Assay; assay type: biochemical; conditions: 5 nM ERK-2, 25 μM ATP, Omnia peptide S/T17; read-out: ERK Inhibition IC50
How it was run: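 Recombinant N-terminal 6-His human ERK-2 (aa 8-360, E. coli) with fluorescent Omnia peptide S/T17 substrate, ambient temperature, read kinetically every 50 s for ~30 min (Ex 340/Em 495 nm). Linear rates converted to percent of control; IC50 from four-parameter fit.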

HCT116 cells = assay: Cell Proliferation/Viability Assay (Cell Titer-Blue, 72 h); assay type: cell-based; conditions: Homo sapiens, HCT-116, 3-day (72-hour) incubation
Procedure: The cytotoxic or cytostatic activity of formula I exemplary compounds was measured by: establishing a proliferating mammalian tumor cell line in a cell culture medium, adding a formula I compound, culturing the cells for a period from about 6 h to about 5 d; and measuring cell viability (Example 78). Cell-based in vitro assays were used to measure viability, i.e. proliferation (IC50), cytotoxicity (EC50).
Viable cells after a 3-day (72-hour) incubation with ERK compounds were quantified using the Cell Titer-Blue Cell Viability Assay from Promega.
Materials and Methods: HCT116 cells were plated in 96 well micro-plates at a density of 1,000 cells/well. The cells were allowed to attach to micro-plate overnight at 37° C./5% CO2. After overnight attachment, diluted compounds were then added to the cells at a final concentration of 0.5% DMSO. After 3 days (72 hours) at 37° C./5% CO2, the number of viable cells was determined using the Cell Titer-Blue Cell Viability Assay from Promega. Briefly, Cell Titer-Blue reagent were added to the cells and incubated for 1 hour. Fluorescense (560 nmexcitation/590 nmemission) was then read using a fluorescence micro-plate reader. Background from high concentration ERK-inhibited wells was subtracted. Representative date is in TABLE III (infra).

[2] = system: PMA-stimulated P90RSK(Ser380) phosphorylation in HepG2 cells; assay: Cellular P90RSK(Ser380) Phosphorylation Assay; assay type: cell-based; conditions: Homo sapiens, 1.5 h compound incubation, PMA stimulation, pP90RSK(Ser380) normalized to GAPDH, read-out: Cell Assay IC50
How it was run: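 HepG2 cells were pretreated with compound (0.5% DMSO final) for 1.5 h, then stimulated with PMA 100 ng/mL for 30 min at 37° C. Fixed, permeabilized cells were immunostained for pP90RSK(Ser380) and GAPDH. The two-channel infrared fluorescence was read, and the phospho signal was normalized to GAPDH.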

Chain of human ERK-2 (Mitogen Activated Kinase 1) (P28482 8-360): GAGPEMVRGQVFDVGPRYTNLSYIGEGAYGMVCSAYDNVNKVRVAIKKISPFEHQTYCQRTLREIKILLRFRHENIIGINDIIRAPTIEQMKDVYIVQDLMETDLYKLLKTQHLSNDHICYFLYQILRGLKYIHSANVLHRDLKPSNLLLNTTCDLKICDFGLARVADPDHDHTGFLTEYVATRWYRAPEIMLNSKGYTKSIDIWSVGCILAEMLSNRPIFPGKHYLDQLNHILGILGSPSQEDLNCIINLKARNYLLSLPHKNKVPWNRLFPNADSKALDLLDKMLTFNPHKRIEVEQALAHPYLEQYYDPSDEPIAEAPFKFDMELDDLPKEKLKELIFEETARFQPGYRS

SMILES | IC50 [1] | IC50 (HCT116 cells) | IC50 [2]
CC(C)Nc1ncc2c(n1)CN(C(=O)N[C@H](CO)c1ccc(Cl)c(Cl)c1)CC2 [Compound I-16, (S)—N-(1-(3,4-dichlorophenyl)-2-hydroxyethyl)-2-(isopropylamino)-5,6-dihydropyrido[3,4-d]pyrimidine-7(8H)-carboxamide] | 1.1 nM | 2100 nM | 52.4 nM
CC(C)Nc1ncc2c(n1)CN(C(=O)N[C@@H]1CN(C)C[C@H]1c1ccc(C(F)(F)F)c(F)c1)CC2 [Compound I-120, N-((3S,4R)-4-(3-fluoro-4-(trifluoromethyl)phenyl)-1-methylpyrrolidin-3-yl)-2-(isopropylamino)-5,6-dihydropyrido[3,4-d]pyrimidine-7(8H)-carboxamide] | 1.6 nM | 557 nM | 37.8 nM
COCC[C@@H](NC(=O)N1CCc2cnc(NC3CCOCC3)nc2C1)c1ccc(Cl)c(Cl)c1 [Compound I-28, (R)—N-(1-(3,4-dichlorophenyl)-3-methoxypropyl)-2-(tetrahydro-2H-pyran-4-ylamino)-5,6-dihydropyrido[3,4-d]pyrimidine-7(8H)-carboxamide] | 1.6 nM | 1900 nM | 32.8 nM
CC[C@@H](NC(=O)N1CCc2cnc(NC3CCOCC3)nc2C1)c1ccc(OC(F)F)cc1 [Compound I-27, (R)—N-(1-(4-(difluoromethoxy)phenyl)propyl)-2-(tetrahydro-2H-pyran-4-ylamino)-5,6-dihydropyrido[3,4-d]pyrimidine-7(8H)-carboxamide] | 1.5 nM | 628 nM | 26.9 nM
O=C(N[C@@H](c1ccc(Cl)c(F)c1)[C@@H]1CNCCO1)N1CCc2cnc(NC3CCOCC3)nc2C1 (mixture of isomers) [Compound I-144, N—((R)-(4-chloro-3-fluorophenyl)((R)-morpholin-2-yl)methyl)-2-(tetrahydro-2H-pyran-4-ylamino)-5,6-dihydropyrido[3,4-d]pyrimidine-7(8H)-carboxamide and N—((S)-(4-chloro-3-fluorophenyl)((S)-morpholin-2-yl)methyl)-2-(tetrahydro-2H-pyran-4-ylamino)-5,6-dihydropyrido[3,4-d]pyrimidine-7(8H)-carboxamide mixture] | 2.3 nM |  | 91.3 nM
Cn1ccc(C(NC(=O)N2CCc3cnc(NC4CCOCC4)nc3C2)c2ccc(Cl)c(F)c2)n1 (stereo not drawn) [Compound I-3, N-((4-chloro-3-fluorophenyl)(1-methyl-1H-pyrazol-3-yl)methyl)-2-(tetrahydro-2H-pyran-4-ylamino)-5,6-dihydropyrido[3,4-d]pyrimidine-7(8H)-carboxamide] | 3.8 nM |  | 101 nM
O=C(NC(c1ccc(Cl)c(F)c1)c1nnco1)N1CCc2cnc(NC3CCOCC3)nc2C1 (stereo not drawn) [Compound I-9, N-((4-chloro-3-fluorophenyl)(1,3,4-oxadiazol-2-yl)methyl)-2-(tetrahydro-2H-pyran-4-ylamino)-5,6-dihydropyrido[3,4-d]pyrimidine-7(8H)-carboxamide] | 2.4 nM |  | 71.7 nM
C[C@@H](CO)Nc1ncc2c(n1)CN(C(=O)NCc1ccc(Cl)c(Cl)c1)CC2 [Compound I-90, (S)—N-(3,4-dichlorobenzyl)-2-(1-hydroxypropan-2-ylamino)-5,6-dihydropyrido[3,4-d]pyrimidine-7(8H)-carboxamide] | 2.1 nM |  | 103 nM
C[C@@H](NC(=O)N1Cc2nc(NC3CCOCC3)ncc2C(F)(F)C1)c1ccc(Cl)c(Cl)c1 [Compound I-50, (R)—N-(1-(3,4-dichlorophenyl)ethyl)-5,5-difluoro-2-(tetrahydro-2H-pyran-4-ylamino)-5,6-dihydropyrido[3,4-d]pyrimidine-7(8H)-carboxamide] | 1.6 nM |  | 28.3 nM
Cc1nccc(Nc2ncc3c(n2)CN(C(=O)N[C@H](C)c2ccc(Cl)c(Cl)c2)CC3)n1 [II-126, 2-(2-Methyl-pyrimidin-4-ylamino)-5,8-dihydro-6H-pyrido[3,4-d]pyrimidine-7-carboxylic acid [(R)-1-(3,4-dichloro-phenyl)-ethyl]-amide] | 6.9 nM |  | 141 nM
